In patent publication US20070185014A1, “Methods and compositions for modulating conjunctival goblet cells” (The Schepens Eye Research Institute, Inc., priority 2006, published 2007):

Assays:
[1] = tested on: rat conjunctival goblet cells; experiment: Goblet cell proliferation, WST tetrazolium assay (Example 3A, Fluorescence Assay); type: cell-based; details: for stimulation of goblet cell proliferation compared to control (no additions): 10^−7 M; for goblet cell proliferation, Ave. fold / goblet cell proliferation, fold of basal, rat101 / goblet cell proliferation, fold of basal, rat102 / goblet cell proliferation, fold of basal, rat103: 24 hrs; for goblet cell proliferation, Ave. fold: average of 3 rats; for goblet cell proliferation, fold of basal, rat101: cells from rat101; for goblet cell proliferation, fold of basal, rat102: cells from rat102; for goblet cell proliferation, fold of basal, rat103: cells from rat103
Description: Conjunctival tissue from the fomical area and the nictitating membranes were removed from male Sprague Dawley rats. Tissue pieces were placed in explant culture in RPMI supplemented with fetal bovine serum (FBS). […] Non-goblet cells, predominantly fibroblasts, were removed by scraping. Goblet cells were allowed to grow and proliferate for several days. Cells were removed from the tissue culture vessel by trypsin treatment. The number of cells was counted using a coulter counter. For measurement of proliferation 200 cells were seeded onto 96 well plates. Cells were allowed to attach and proliferate until a sparsely confluent level was obtained, about two days.
Goblet cells from passage 1 or 2 cultured as above were used for measurement of proliferation. Cells were plated at 200 cells/well. Cells were serum-starved for 24 or 48 hrs. Test compounds in varying concentrations were added to each cell well for 24 hrs. The positive control for proliferation was the addition of 10% FBS, a known maximal stimulator of proliferation. Proliferation was terminated by the removal of medium.

[2] = tested on: rat conjunctival goblet cells; experiment: Goblet cell proliferation, Ki-67/UEA-1/DAPi immunofluorescence assay (Example 3B); type: cell-based; details: 24 hours; concentration most effective in the fluorescence assay (FBS 10%)
Description: Conjunctival tissue from the fomical area and the nictitating membranes were removed from male Sprague Dawley rats. Tissue pieces were placed in explant culture in RPMI supplemented with fetal bovine serum (FBS). Over several days cells grew out of the explant and proliferated. Non-goblet cells, predominantly fibroblasts, were removed by scraping. Goblet cells were allowed to grow and proliferate for several days. Cells were removed from the tissue culture vessel by trypsin treatment. The number of cells was counted using a coulter counter. For measurement of proliferation 200 cells were seeded onto 96 well plates. […]
B. Immunofluorescence Assay This assay was used to confirm the results from the fluorescence assay. […]
Ki-67 was detected with a rhodamine secondary antibody using a filter that measures excitation wavelengths from 530-560 nm. UEA-1, which stains goblet cells, was directly conjugated to fluorescein isothyocyanate (FITC) and was detected using a filter that measures excitation wavelengths from 450-490 nm. DAPi, which stains the nuclei of all cells, was detected using a filter that measures excitation wavelengths from 400-418 nm. The percentage of proliferating goblet cells is determined by dividing the number of Ki-67 positive goblet cells by the total number of cells and multiplying by 100. […]

CC(C)Cn1c(=O)c2[nH]cnc2n(C)c1=O [1-isobutyl-3methylxanthine, reference compound]
effect on goblet cell proliferation ([1]; 10^−6 to 10^−3 M): did not increase proliferation at the concentrations tested

C[N+](C)(C)CCOC(N)=O [Carbachol, reference compound]
effect on goblet cell proliferation ([1]; 10^−6 to 10^−3 M): did not increase cell proliferation at any concentration

CC(C)NCC(O)c1ccc(O)c(O)c1 (stereo not shown) [Isoproterenol, reference compound]
effect on goblet cell proliferation ([1]; 10^−7 to 10^−3 M, likely due to interference with the assay): did not increase proliferation

CCCCCCCCCCCCCC(=O)O[C@@H]1[C@@H](C)[C@@]2(O)[C@@H](C=C(CO)C[C@]3(O)C(=O)C(C)=C[C@@H]23)[C@@H]2C(C)(C)[C@]12OC(C)=O [PMA, Phorbol myristic acid, reference compound]
effect on goblet cell proliferation ([1]; 10^−8M, solubilized in less than 1% DMSO, compared to no additions): did not stimulate cell proliferation

CCCC(=O)Nc1ncnc2c1ncn2[C@@H]1O[C@@H]2COP(=O)(O)O[C@H]2[C@H]1OC(=O)CCC [butyryl cAMP, dibutyryl cAMP, reference compound]
effect on goblet cell proliferation ([1]; 10^−6 to 10^−3 M): did not increase proliferation at the concentrations tested

CCCC(=O)O[C@@H]1[C@@H](C)[C@@]2(O)[C@@H](C=C(CO)C[C@]3(O)C(=O)C(C)=C[C@@H]23)[C@@H]2C(C)(C)[C@]12OC(=O)CCC [phorbol dibutyrate β isoform, phorbol dibutyrate, reference compound]
effect on goblet cell proliferation ([1]; concentrations not greater than 10^−7 M, solubilized in DMSO): Neither isoform increased proliferation except at high concentrations | effect on goblet cell proliferation ([1]; high concentrations, greater than 10^−7 M, effect not mediated by PKC): both isoforms increased proliferation

EGF: epidermal growth factor, activates ErbB-1 receptors
proliferation (Ki-67 positive goblet cells as percentage of total cells) [2]: 40% | stimulation of goblet cell proliferation compared to control (no additions) [1]: about two

Galectin-1: recombinant galectin, mono-CRD carbohydrate-binding protein, obtained from Cell Services, Massachusetts, 98% pure
dose dependence of effect on goblet cell proliferation ([1]; 0.1 μg/ml to 5 μg/ml): appeared to be dose dependent | effect on goblet cell proliferation ([1]; 0.1 μg/ml to 5 μg/ml): both galectins stimulated goblet cell proliferation | goblet cell proliferation, Ave. fold ([1]; 0.1 ug/ml): 1.0 fold | goblet cell proliferation, fold of basal, rat101 ([1]; 0.1 ug/ml): 1.1 fold | goblet cell proliferation, fold of basal, rat102 ([1]; 0.1 ug/ml): 1.0 fold | goblet cell proliferation, fold of basal, rat103 ([1]; 0.1 ug/ml): 1.0 fold | goblet cell proliferation, Ave. fold ([1]; 0.5 ug/ml): 1.0 fold | goblet cell proliferation, fold of basal, rat101 ([1]; 0.5 ug/ml): 1.1 fold | goblet cell proliferation, fold of basal, rat102 ([1]; 0.5 ug/ml): 1.0 fold | goblet cell proliferation, fold of basal, rat103 ([1]; 0.5 ug/ml): 1.0 fold | goblet cell proliferation, Ave. fold ([1]; 1.0 ug/ml): 1.0 fold | goblet cell proliferation, fold of basal, rat101 ([1]; 1.0 ug/ml): 1.1 fold | goblet cell proliferation, fold of basal, rat102 ([1]; 1.0 ug/ml): 1.0 fold | goblet cell proliferation, fold of basal, rat103 ([1]; 1.0 ug/ml): 1.0 fold | goblet cell proliferation, Ave. fold ([1]; 2.0 ug/ml): 1.2 fold | goblet cell proliferation, fold of basal, rat101 ([1]; 2.0 ug/ml): 1.5 fold | goblet cell proliferation, fold of basal, rat102 ([1]; 2.0 ug/ml): 1.2 fold | goblet cell proliferation, fold of basal, rat103 ([1]; 2.0 ug/ml): 1.1 fold | goblet cell proliferation, Ave. fold ([1]; 5.0 ug/ml): 1.3 fold | goblet cell proliferation, fold of basal, rat101 ([1]; 5.0 ug/ml): 1.4 fold | goblet cell proliferation, fold of basal, rat102 ([1]; 5.0 ug/ml): 1.4 fold | goblet cell proliferation, fold of basal, rat103 ([1]; 5.0 ug/ml): 1.2 fold

Galectin-3: recombinant galectin with single CRD domain and extended N-terminal region, obtained from Cell Services, Massachusetts, 98% pure
dose dependence of effect on goblet cell proliferation ([1]; 0.1 μg/ml to 5 μg/ml): appeared to be dose dependent | effect on goblet cell proliferation ([1]; 0.1 μg/ml to 5 μg/ml): both galectins stimulated goblet cell proliferation | goblet cell proliferation, Ave. fold ([1]; 0.1 ug/ml): 1.0 fold | goblet cell proliferation, fold of basal, rat101 ([1]; 0.1 ug/ml): 1.0 fold | goblet cell proliferation, fold of basal, rat102 ([1]; 0.1 ug/ml): 0.9 fold | goblet cell proliferation, fold of basal, rat103 ([1]; 0.1 ug/ml): 1.0 fold | goblet cell proliferation, Ave. fold ([1]; 0.5 ug/ml): 1.1 fold | goblet cell proliferation, fold of basal, rat101 ([1]; 0.5 ug/ml): 1.3 fold | goblet cell proliferation, fold of basal, rat102 ([1]; 0.5 ug/ml): 1.0 fold | goblet cell proliferation, fold of basal, rat103 ([1]; 0.5 ug/ml): 1.0 fold | goblet cell proliferation, Ave. fold ([1]; 1.0 ug/ml): 1.2 fold | goblet cell proliferation, fold of basal, rat101 ([1]; 1.0 ug/ml): 1.3 fold | goblet cell proliferation, fold of basal, rat102 ([1]; 1.0 ug/ml): 1.1 fold | goblet cell proliferation, fold of basal, rat103 ([1]; 1.0 ug/ml): 1.0 fold | goblet cell proliferation, Ave. fold ([1]; 2.0 ug/ml): 1.3 fold | goblet cell proliferation, fold of basal, rat101 ([1]; 2.0 ug/ml): 1.5 fold | goblet cell proliferation, fold of basal, rat102 ([1]; 2.0 ug/ml): 1.3 fold | goblet cell proliferation, fold of basal, rat103 ([1]; 2.0 ug/ml): 1.1 fold | goblet cell proliferation, Ave. fold ([1]; 5.0 ug/ml): 1.4 fold | goblet cell proliferation, fold of basal, rat101 ([1]; 5.0 ug/ml): 1.8 fold | goblet cell proliferation, fold of basal, rat102 ([1]; 5.0 ug/ml): 1.2 fold | goblet cell proliferation, fold of basal, rat103 ([1]; 5.0 ug/ml): 1.1 fold

HGF: hepatocyte growth factor
effect on goblet cell proliferation ([1]; 15-40 ng/ml): Neither hepatocyte growth factor (HGF, 15-40 ng/ml) nor keratinocyte growth factor (KGF, 10-30 ng/ml), at any of the concentrations used, stimulated cell proliferation

Heregulin
stimulation of goblet cell proliferation compared to control (no additions) [1]: more than 2 fold

PDGF
increase in goblet cell proliferation compared to no additions ([1]; 5 to 25 ng/ml): 2 fold

bFGF: Basic fibroblast growth factor, also referred to as FGF-2
proliferation (Ki-67 positive goblet cells as percentage of total cells) [2]: 70% | effect on goblet cell proliferation ([1]; 10-20 ng/ml, similar to PDGF (2-fold)): had similar effects

transforming growth factor (TGF)α: EGF family growth factor that activates ErbB-1 receptors
stimulation of goblet cell proliferation compared to control (no additions) [1]: about two

B1: HB-EGF: Heparin binding-EGF, binds to ErbB-1 and ErbB-3 receptors (protein, UniProt Q99075 63-148, looked up)
Heparin-binding EGF-like …: DLQEADLDLLRVTLSSKPQALATPNKEEHGKRKKKGKGLGKKRDPCLRKYKDFCIHGECKYVKELRAPSCICHPGYHGERCHGLSL
stimulation of goblet cell proliferation compared to control (no additions) [1]: 2 fold

B2: KGF: keratinocyte growth factor (protein, UniProt P21781 32-194, looked up)
Fibroblast growth factor 7: CNDMTPEQMATNVNCSSPERHTRSYDYMEGGDIRVRRLFCRTQWYLRIDKRGKVKGTQEMKNNYNIMEIRTVAVGIVAIKGVESEFYLAMNKEGKLYAKKECNEDCNFKELILENHYNTYASAKWTHNGGEMFVALNQKGIPVRGKKTKKEQKTAHFLPMAIT
effect on goblet cell proliferation ([1]; 10-30 ng/ml): Neither hepatocyte growth factor (HGF, 15-40 ng/ml) nor keratinocyte growth factor (KGF, 10-30 ng/ml), at any of the concentrations used, stimulated cell proliferation
